Data from patent publication US7811609B2, “Use of metal compounds to treat gastrointestinal infections” (priority 2000, dated 2010).
“And” between values parts separate entries of the source, which are not always exact repeats. Identical values can stand only once. Like-named read-outs stand apart in the source and are kept apart here.

Tests used:
Helicobacter pylori [1] = system: Helicobacter pylori
Experimental: (§1) Solutions of metal salts were prepared by dilution of the metal salt, optionally together with the ligand, in ultra-high-purity water. The pH values were adjusted to 7 with concentrated sodium hydroxide. The solutions were γ irradiated for 20 to 30 minutes for sterilisation, and then diluted ten fold in the bacterial growth medium to be used.
(§2) A gradient of concentration was obtained by two fold serial dilutions of the medium. The concentrations of metals were analysed by inductively coupled plasma spectrometry. Each dilution was inoculated with the different bacteria to be tested, by multi-point inoculating on the agar media, or suspending in the broth media.
(§3) Media were incubated for Helicobacter pylori in a microaerobic atmosphere (gas jar containing a CampyGen® pack, 5% O2-10% CO2-85% N2 by volume) with constant shaking (orbital shaker, 140 rpm) at 37° C. for five days.
(§4) The presence or absence of bacterial growth was reported within the concentration gradient and the minimum concentration of complex in the medium that inhibits totally the bacterial growth (MIC) was determined. The growth on an agar plate was detected by the presence of colonies, and by turbidity in the broth media. […] Helicobacter pylori growth was also confirmed by biochemical test on the catalase, urease and oxidase activity.

Echerichia coli = assay: MIC against Echerichia coli; type: cell-based
[2] = system: Staphylococcus (aureus or Oxford Staph); settings: extrapolated from survival rates; protein broth then phosphate-buffered saline; Zhao et al 1998; cited from earlier work
Enterococcus faecium = assay: MIC against Enterococcus faecium; type: cell-based; settings: Mueller-Hinton agar with 2% horse serum and isosensitest agar with 5% horse blood; several strains
Enterococcus faecalis = assay: MIC against Enterococcus faecalis; type: cell-based
Pseudomonas aeruginosa [3] = settings: extrapolated from survival rates; protein broth then phosphate-buffered saline; Zhao et al 1998; cited from earlier work
Klebsiella = assay: MIC against Klebsiella; type: cell-based
Staphylococcus aureus = assay: MIC against Staphylococcus aureus; type: cell-based
E. coli = settings: extrapolated from survival rates; protein broth then phosphate-buffered saline; Zhao et al 1998; cited from earlier work
[4] = Tolerance study in patients with H. pylori infection; type: in vivo, human; settings: six patients; 20 mg/day cobalt (10 mg b.d) for two weeks; oral capsules or solution
Experimental: In a tolerance study, six patients with H. pylori infection ingested a low dose of 20 mg/day cobalt, as cobalt chloride (10 mg b.d), for two weeks. […] In one patient the cobalt was taken also with a proton pump inhibitor (Lansoprazole) while the remaining 5 took cobalt alone as capsules (4 patients) or a solution (1 patient). 3 of these patients had gastritis and/or duodenitis with a duodenal ulcer also in one of these three. The other 3 had oesophagitis and/or normal stomach and duodenum.

Pseudomonas aeruginosa [5] = assay: MIC against Pseudomonas aeruginosa; type: cell-based
Helicobacter pylori [6] = assay: Inhibition of Helicobacter pylori growth over time in the STH medium (FIG. 1, cfu/ml against time); type: cell-based; settings: cobalt 2.00 ppm
Description: FIG. 1 is a graph showing the inhibition of H. pylori growth by cobalt (cobaltous chloride) in the STH medium.
I50=inhibition of 50% of the Helicobacter pylori inoculated by cobaltous chloride. Concentration of cobalt in the medium was 2.00 ppm.

Helicobacter pylori [7] = assay: MIC against Helicobacter pylori by two fold serial dilution in growth medium; type: cell-based
Experimental: as §1, §2
The presence or absence of bacterial growth was reported within the concentration gradient and the minimum concentration of complex in the medium that inhibits totally the bacterial growth (MIC) was determined. The growth on an agar plate was detected by the presence of colonies, and by turbidity in the broth media. The bacteria were identified by the Gram morphology test. Helicobacter pylori growth was also confirmed by biochemical test on the catalase, urease and oxidase activity.

[8] = system: Coagulase negative staphylococcus; assay: MIC against coagulase negative staphylococcus; type: cell-based; settings: Mueller-Hinton agar with 2% horse serum and isosensitest agar with 5% horse blood; several strains
other bacteria = assay: MIC against other bacteria; type: cell-based; settings: 32 mg/l = estimate limit between active and non-active metals
Helicobacter pylori [9] = assay: microbe, parasite or virus in culture; settings: read-out: MIC of amoxycillin (no cobalt)
Experimental: as §1, §2, §3, §4

H. pylori = settings: cited from earlier work
[10] = Mueller-Hinton agar with 2% horse serum and isosensitest agar with 5% horse blood, several strains

[Cl-].[Cl-].[Co+2] [Co chloride, cobalt (II) chloride]
growth in the medium (Helicobacter pylori [1]; Co 0.0015 mg/l, Ax 0 mg/l): + | growth in the medium (Helicobacter pylori [1]; Co 0.004 mg/l, Ax 0 mg/l): + | growth in the medium (Helicobacter pylori [1]; Co 0.008 mg/l, Ax 0 mg/l): + | growth in the medium (Helicobacter pylori [1]; Co 0.030 mg/l, Ax 0 mg/l): − | growth in the medium (Helicobacter pylori [1]; Co 0.060 mg/l, Ax 0 mg/l): − | growth in the medium (Helicobacter pylori [1]; Co 0.120 mg/l, Ax 0 mg/l): − | MIC of cobalt (no amoxycillin) (Helicobacter pylori [1]; no amoxycillin): MIC of cobalt (no amoxycillin): 0.030 mg/l | MIC (Echerichia coli; [10]): >32 µg/mL | MIC, E. coli (Echerichia coli; Table 4): > 32 µg/mL | MIC, Staphylococcus (aureus or Oxford Staph) (footnote a) [2]: 22.97^a | MIC (Enterococcus faecium): >32 µg/mL | MIC (Enterococcus faecalis; [10]): >32 µg/mL | MIC, Ent faecalis (Enterococcus faecalis; Table 4): > 32 µg/mL | MIC, Pseudomonas aeruginosa (footnote a) (Pseudomonas aeruginosa [3]): 2.3^a | MIC (Klebsiella; [10]): >32 µg/mL | MIC, Klebsiella (Klebsiella; Table 4): > 32 µg/mL | MIC (Staphylococcus aureus; [10]): >32 µg/mL | MIC, Staphylococcus (aureus or Oxford Staph) (Staphylococcus aureus; Table 4): > 32 µg/mL | MIC, E. coli (footnote a) (E. coli): 22.97^a | adverse effects [4]: no reported adverse effects | MIC (Pseudomonas aeruginosa [5]; [10]): >32 µg/mL | MIC, Pseudomonas aeruginosa (Pseudomonas aeruginosa [5]; Table 4): > 32 µg/mL | time to I50 (inhibition of 50% of the Helicobacter pylori inoculated) (Helicobacter pylori [6]): 5 h | time to total inhibition (Helicobacter pylori [6]): 8 h | Average Selectivity Ratio (Helicobacter pylori [7]; (Sum of MIC values against all bacteria except H. pylori ÷ No. of MIC values) ÷ MIC value for H. pylori): 434 | MIC (Helicobacter pylori [7]; STH broth, NCTC 11637 and seven clinical isolates): 0.03 to 0.6 µg/mL | MIC (mg/l), median (Helicobacter pylori [7]; STH broth, NCTC 11637 and seven clinical isolates, median): 0.06 mg/L | Mean ratio pH 4:pH 7, first value (Helicobacter pylori [7]; Strain 1 (Chloride: against first pH 7 value)): 0.5 | MIC, Strain 1 (pH 4) (Helicobacter pylori [7]; Strain 1, pH 4): 0.015 | MIC, Strain 1 (pH 7) (Helicobacter pylori [7]; Strain 1, pH 7 (first value where two are given)): 0.03 | MIC, Strain 1 (pH 7), second value (Helicobacter pylori [7]; Strain 1, pH 7, second of x/y): 0.125 | Mean ratio pH 4:pH 7, second value (Helicobacter pylori [7]; Strain 2 (Chloride: Strain 1 against second pH 7 value)): 0.12 | MIC, H. pylori, range in brackets (Helicobacter pylori [7]; Table 4): (<0.03-0.125) | MIC, H. pylori (Helicobacter pylori [7]; Table 4, main value): 0.06 µg/mL | activity against H. pylori at pH 4 relative to pH 7 (Helicobacter pylori [7]; Table 5): about 10 fold | kind of action against H. pylori (Helicobacter pylori [7]; found by measuring the MIC): not only bacteriostatic (i.e. inhibitory of growth), but also bactericidal | minimum inhibitory concentration (MIC) (Helicobacter pylori [7]; in vitro, Co^2+ as cobalt chloride): 0.06 µg/mL | MIC, pH 4-7 (Helicobacter pylori [7]; pH 4-7: pH of the media changes during the experiment from acidic start): 0.03-0.4 mg/l | MIC, pH 7 (Helicobacter pylori [7]; pH 7): 0.06-0.4 mg/l | activity against the H. pylori strain deprived of its urease enzyme (Helicobacter pylori [7]; urease-deprived strain): active | MIC [8]: >32 µg/mL | activity (MIC) against other bacteria (other bacteria): > 32 µg/mL

CC1(C)S[C@@H]2[C@H](NC(=O)[C@H](N)c3ccc(O)cc3)C(=O)N2[C@H]1C(=O)O [amoxycillin, reference compound]
growth in the medium (Helicobacter pylori [1]; Co 0 mg/l, Ax 0.002 mg/l): + | growth in the medium (Helicobacter pylori [1]; Co 0 mg/l, Ax 0.004 mg/l): + | growth in the medium (Helicobacter pylori [1]; Co 0 mg/l, Ax 0.008 mg/l): + | growth in the medium (Helicobacter pylori [1]; Co 0 mg/l, Ax 0.015 mg/l): + | growth in the medium (Helicobacter pylori [1]; Co 0 mg/l, Ax 0.03 mg/l): + | growth in the medium (Helicobacter pylori [1]; Co 0 mg/l, Ax 0.06 mg/l): − | MIC (Helicobacter pylori [9]): 0.06 µg/mL | MIC, strains that repeatedly showed higher MIC (H. pylori; H. pylori strains lacking one penicillin-binding protein): 0.25 µg/mL and 0.5 µg/mL | MIC, usual (H. pylori; H. pylori, usual strains): ≤ 0.03 µg/mL
